Laboratory results published in patent publication US9808014B2, “Active-powder biocidal composition comprising at least one copper salt and at least one zinc salt and the method for the production thereof” (Textil Copper Andino S.A. [CL/CL], priority 2011, dated 2017).

Experiments:
[1] = Solubility constant in aqueous solution (Kps)
Staphylococcus aureus = conditions: Cu^+ ions; cited from earlier work
Subtilis bacteria = conditions: Cu^+ ions; cited from earlier work

Copper(I)Phthalocyanine
Group (classification according to Kps value) [1]: B (Group B: salts with a Kps within a range that goes from a value greater than 9*10^−16 until a value equal to or less than 9*10^−11.)

Copper (I)Hydroxide
Group (classification according to Kps value) [1]: B (Group B: salts with a Kps within a range that goes from a value greater than 9*10^−16 until a value equal to or less than 9*10^−11.)

[Cu] [copper]
MIC value for copper (Staphylococcus aureus): 0.35 µM
MIC value for copper (Subtilis bacteria): 0.04 µM

[OH][Cu][OH] [Copper (II)Hydroxide]
Group (classification according to Kps value) [1]: C (Group C: salts with a Kps within a range that goes from a value greater than or equal to 1*10^−20 until a value equal to or less than 9*10^−16.)

Copper(I) Oxide
Group (classification according to Kps value) [1]: B (Group B: salts with a Kps within a range that goes from a value greater than 9*10^−16 until a value equal to or less than 9*10^−11.)
